Like-named read-outs stand apart in the source and are kept apart here.
Key:
[1] = read-out: Stability constant of the complex with β-cyclodextrin, cited from earlier work
[2] = read-out: Stability constant of the complex with α-cyclodextrin, cited from earlier work
[3] = Solubility of freeze-dried complexes or residues in water, and stability of the solutions; type: physicochemical; conditions: attempted complex preparation
Description: For a number of applications, complexes in powdery form as prepared by freeze-drying (lyophilizing), are preferable to the glassy residues such as are obtained by the above discussed procedure. Therefore, to obtain complexes in a powdery form, the glassy preparations were dissolved in water (final concentration of hydroxypropyl-β-cyclodextrin was about 10% W/W), sterilized by ultrafiltration and freeze-dried. All of the following exemplary preparations of steroids so prepared, dissolved fully. Moreover, the complexes so obtained were again amorphous and could be tabletted by direct compression.
The solubility of freeze-dried complexes such as those provided below was invariably high. For example, all the complexes of steroids in Examples 1-3 dissolved smoothly in water up to 40% W/W concentration, and these solutions were stable for at least 24 hours.
[…] Full dissolution occurred in five minutes; the solution was then filtered through a membrane filter (pore size 0.22 μm). The filtrate was evaporated at room temperature in vacuo to dryness leaving a glassy residue. […] The yield was 85%.

[4] = type: physicochemical
Text: The methods of preparation herein disclosed were also used successfully with the ethanol-soluble peptides such as gramicidin S, complexed with hydroxypropyl-β-cyclodextrin (Example 4). It was also used to prepare the gramicidin S:hydroxypropyl-α-cyclodextrin preparation (Example 5) and gramicidin S:hydroxypropyl-γ-cyclodextrin preparation (Example 6).
The processes disclosed herein differ substantially from those described by Szejtli (p. 268) for the preparation of crystalline β-cyclodextrin:vitamin D3 complexes, which were prepared using organic solvents. In this regard, the procedure described by Szejtli consists of the co-dissolution of components, i.e., of crystalline β-cyclodextrin and vitamin D3, at 50° C. in 60-65% aqueous ethanol, followed by cooling of the clear solution during which crystalline complex of the vitamin precipitates. Moreover, attempts to use Szejtli's procedure for the above complexes were not successful, since concentration of ethanol in the range 60-65% solubilized steroids only incompletely and no precipitation occurred.

[5] = β-cyclodextrin, aqueous sodium hydroxide then phosphoric acid (U.S. Pat. No. 4,883,785, Example 3); cited from earlier work
[6] = source (d) W. Hirsch et al. 1987
[7] = source (a) M. Suzuki et al. 1988
[8] = source (b) Y. Matsui and K. Mochida 1979

Row | Compound | Kd [2, 7] [mM] | Kd [2, 8] [mM] | Kd [1, 7] [mM] | Kd [1, 8] [mM] | other results
1 | N [ammonia] | – | – | – | – | Kd [1, 6]: 0.0667 mM; Kd [2, 6]: 0.0164 mM
2 | gramicidin D | – | – | – | – | Solubility in water of solid residue after evaporation of ethanol 95% solution [3]: insoluble in water; Dissolution in ethanol 75% ([4]; ethanol 75%): did not dissolve; Dissolution in ethanol 95% ([4]; ethanol 95%): dissolved
3 | OC[C@H]1O[C@@H]2O[C@H]3[C@H](O)[C@@H](O)[C@@H](O[C@H]4[C@H](O)[C@@H](O)[C@@H](O[C@H]5[C@H](O)[C@@H](O)[C@@H](O[C@H]6[C@H](O)[C@@H](O)[C@@H](O[C@H]7[C@H](O)[C@@H](O)[C@@H](O[C@H]8[C@H](O)[C@@H](O)[C@@H](O[C@H]1[C@H](O)[C@H]2O)O[C@@H]8CO)O[C@@H]7CO)O[C@@H]6CO)O[C@@H]5CO)O[C@@H]4CO)O[C@@H]3CO [β-cyclodextrin] | – | – | – | – | Solubility in 75% ethanol [4]: low solubility
4 | CCCCO [n-butanol] | 9.09 | 11.2 | – | – | –
5 | CC(C)(C)O [t-butanol] | – | – | 23.8 | 20.8 | –
6 | C[C@@H]1[C@H](O)[C@@H](C)/C=C/C=C/C=C/C=C/C=C/C=C/C=C/[C@H](O[C@@H]2O[C@H](C)[C@@H](O)[C@H](N)[C@@H]2O)C[C@@H]2O[C@](O)(C[C@@H](O)C[C@@H](O)[C@H](O)CC[C@@H](O)C[C@@H](O)CC(=O)O[C@H]1C)C[C@H](O)[C@H]2C(=O)O [amphotericin B] | – | – | – | – | Starting drug solubilized [5]: about 1%
7 | CC(C)(C)CO [2,2-dimethyl-1-propanol] | 33.3 | – | 1.52 | 1.72 | –
8 | CCCO [n-propanol] | 50 | 43.5 | – | – | –
9 | CCCCCO [n-pentanol] | 3.33 | 3.1 | 11.5 | 15.9 | –
